Data taken from ChEMBL document CHEMBL5726001, “Compounds for use in preparing heterocyclic triazole agonists of the APJ receptor” (2018).

What follows are molecules tested against T1, Apelin receptor (Homo sapiens, UniProt P35414) (assay: [35S]GTPgammaS Binding: The human APJ receptor was cloned by polymerase chain reaction and the gene encoding the receptor was subcloned in pFLAG-CMV-3 expression vector (Sigma, Saint Louis, Mo. USA) in-house at Amgen. A GTPγS binding assay was performed on membranes prepared from CHO cells stably expressing human APJ receptor. The optimum experimental conditions for the concentrations of GDP, MgCl2, and NaCl in the assay buffer were initially determined. The assay was performed in assay buffer [20 mM HEPES, pH 7.5, 5 mM MgCl2, and 0.1% (w/v) BSA with 200 mM NaCl, 3 μM GDP] and membranes expressing human APJ receptor/well along with WGA PS beads. The reaction was initiated by addition of 0.2 nM [35S]GTPγS (Perkin Elmer Life and Analytical Sciences, Waltham USA) in the absence or presence of various ligands and incubated at RT for 90 min. Nonspecific binding was determined in the presence of 100 μM GTPγS and was always less than 0.2% of total binding. All the results presented are means of several independent experiments and analyzed by non-linear regression methods using commercially available program Prism (GraphPad, San Diego, Calif.).).
T1 sequence (P35414 whole entry): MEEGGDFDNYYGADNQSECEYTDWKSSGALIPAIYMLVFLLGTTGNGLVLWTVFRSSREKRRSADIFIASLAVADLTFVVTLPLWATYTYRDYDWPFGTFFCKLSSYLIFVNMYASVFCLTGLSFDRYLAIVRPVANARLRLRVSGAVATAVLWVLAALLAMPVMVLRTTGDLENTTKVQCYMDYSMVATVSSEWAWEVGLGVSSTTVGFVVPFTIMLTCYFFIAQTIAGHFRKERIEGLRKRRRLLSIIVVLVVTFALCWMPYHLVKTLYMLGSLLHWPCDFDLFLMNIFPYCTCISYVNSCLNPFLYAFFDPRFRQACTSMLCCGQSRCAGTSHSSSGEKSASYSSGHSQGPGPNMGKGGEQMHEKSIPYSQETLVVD

SMILES	EC50
COc1cccc(OC)c1-n1c(NS(=O)(=O)[C@@H](C)[C@@H](OC(C)C)c2ncc(C)cn2)nnc1[C@H]1COCCO1	16 nM
COc1ncnc(OC)c1-n1c(NS(=O)(=O)[C@@H](C)[C@H](C)c2ncc(Cl)cn2)nnc1C1COC1	730 nM
CO[C@H]1CCC[C@@H](OC)[C@@H]1n1c(NS(=O)(=O)[C@@H](C)[C@H](C)c2ncc(C)cn2)nnc1C1CCCO1 (single isomer, unassigned)	240 nM
